Article PMC10504751, “Chalcone/1,3,4-Oxadiazole/Benzimidazole hybrids as novel anti-proliferative agents inducing apoptosis and inhibiting EGFR & BRAFV^600E” (BMC Chemistry, 2023)

Tests used:
Assay in all cases: NCI one-dose SRB anti-proliferative screen
Assay type in all cases: cell-based
A549/ATCC = details: Homo sapiens; A549/ATCC, Non-Small Cell Lung Cancer; NCI one dose; read-out: Cell growth inhibition %
Procedure, shortened: (§1)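 Compounds were tested at a single 10 µM concentration within a 60-cell-line panel covering nine tumour subpanels. Growth was read colorimetrically by sulforhodamine B staining.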

COLO 205 = details: Homo sapiens; COLO 205, Colon cancer; NCI one dose; read-out: Cell growth inhibition %
Procedure, shortened: as §1

DU-145 = details: Homo sapiens; DU-145, Prostate Cancer; NCI one dose; read-out: Cell growth inhibition %
Procedure, shortened: as §1

HCC-2998 = details: Homo sapiens; HCC-2998, Colon cancer; NCI one dose; read-out: Cell growth inhibition %
Procedure, shortened: as §1

HCT-15 = details: Homo sapiens; HCT-15, Colon cancer; NCI one dose; read-out: Cell growth inhibition %
Procedure, shortened: as §1

HL-60(TB) = details: Homo sapiens; HL-60(TB), Leukemia; NCI one dose; read-out: Cell growth inhibition %
Procedure, shortened: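 Activity reflects a single-point exposure at 10 µM, with cell mass determined by a sulforhodamine B dye assay.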

HOP-92 = details: Homo sapiens; HOP-92, Non-Small Cell Lung Cancer; NCI one dose; read-out: Cell growth inhibition %
Procedure, shortened: as §1

HT29 = details: Homo sapiens, HT-29; HT29, Colon cancer; NCI one dose; read-out: Cell growth inhibition %
Procedure, shortened: as §1

IGROV1 = details: Homo sapiens, IGROV-1; IGROV1, Ovarian Cancer; NCI one dose; read-out: Cell growth inhibition %
Procedure, shortened: as §1

KM12 = details: Homo sapiens; KM12, Colon cancer; NCI one dose; read-out: Cell growth inhibition %
Procedure, shortened: as §1

LOX IMVI = details: Homo sapiens; for activity at 10 µM: LOX IMVI (Melanoma), 10 µM one dose, read-out: Growth Percent; for inhibition at 10 µM: Melanoma, NCI one dose, read-out: Cell growth inhibition %
Procedure, shortened: as §1

M14 = details: Homo sapiens; M14, Melanoma; NCI one dose; read-out: Cell growth inhibition %
Procedure, shortened: as §1

MALME-3M = details: Homo sapiens; MALME-3M, Melanoma; NCI one dose; read-out: Cell growth inhibition %
Procedure, shortened: as §1

MCF7 = details: Homo sapiens; MCF7, Breast cancer; NCI one dose; read-out: Cell growth inhibition %
Procedure, shortened: as §1

MDA-MB-231/ATCC = details: Homo sapiens; MDA-MB-231/ATCC, Breast cancer; NCI one dose; read-out: Cell growth inhibition %
Procedure, shortened: as §1

NCI-H23 = details: Homo sapiens; NCI-H23, Non-Small Cell Lung Cancer; NCI one dose; read-out: Cell growth inhibition %
Procedure, shortened: as §1

NCI-H322M = details: Homo sapiens; NCI-H322M, Non-Small Cell Lung Cancer; NCI one dose; read-out: Cell growth inhibition %
Procedure, shortened: as §1

NCI-H460 = details: Homo sapiens; NCI-H460, Non-Small Cell Lung Cancer; NCI one dose; read-out: Cell growth inhibition %
Procedure, shortened: as §1

OVCAR-4 = details: Homo sapiens; OVCAR-4, Ovarian Cancer; NCI one dose; read-out: Cell growth inhibition %
Procedure, shortened: as §1

OVCAR-5 = details: Homo sapiens; OVCAR-5, Ovarian Cancer; NCI one dose; read-out: Cell growth inhibition %
Procedure, shortened: as §1

OVCAR-8 = details: Homo sapiens; OVCAR-8, Ovarian Cancer; NCI one dose; read-out: Cell growth inhibition %
Procedure, shortened: as §1

PC-3 = details: Homo sapiens; PC-3, Prostate Cancer; NCI one dose; read-out: Cell growth inhibition %
Procedure, shortened: as §1

SF-295 = details: Homo sapiens; SF-295, CNS Cancer; NCI one dose; read-out: Cell growth inhibition %
Procedure, shortened: as §1

SF-539 = details: Homo sapiens; SF-539, CNS Cancer; NCI one dose; read-out: Cell growth inhibition %
Procedure, shortened: as §1

SK-MEL-28 = details: Homo sapiens; SK-MEL-28, Melanoma; NCI one dose; read-out: Cell growth inhibition %
Procedure, shortened: as §1

SK-MEL-5 = details: Homo sapiens; SK-MEL-5, Melanoma; NCI one dose; read-out: Cell growth inhibition %
Procedure, shortened: as §1

SK-OV-3 = details: Homo sapiens; SK-OV-3, Ovarian Cancer; NCI one dose; read-out: Cell growth inhibition %
Procedure, shortened: as §1

SNB-19 = details: Homo sapiens; SNB-19, CNS Cancer; NCI one dose; read-out: Cell growth inhibition %
Procedure, shortened: as §1

SW-620 = details: Homo sapiens; SW-620, Colon cancer; NCI one dose; read-out: Cell growth inhibition %
Procedure, shortened: as §1

TK-10 = details: Homo sapiens; TK-10, Renal cancer; NCI one dose; read-out: Cell growth inhibition %
Procedure, shortened: as §1

UACC-257 = details: Homo sapiens; UACC-257, Melanoma; NCI one dose; read-out: Cell growth inhibition %
Procedure, shortened: as §1

Compound | inhibition at 10 µM (A549/ATCC) | inhibition at 10 µM (COLO 205) | inhibition at 10 µM (DU-145) | inhibition at 10 µM (HCC-2998) | inhibition at 10 µM (HCT-15) | inhibition at 10 µM (HL-60(TB)) | inhibition at 10 µM (HOP-92) | inhibition at 10 µM (HT29) | inhibition at 10 µM (IGROV1) | inhibition at 10 µM (KM12) | inhibition at 10 µM (LOX IMVI) | inhibition at 10 µM (M14) | inhibition at 10 µM (MALME-3M) | inhibition at 10 µM (MCF7) | inhibition at 10 µM (MDA-MB-231/ATCC) | inhibition at 10 µM (NCI-H23) | inhibition at 10 µM (NCI-H322M) | inhibition at 10 µM (NCI-H460) | inhibition at 10 µM (OVCAR-4) | inhibition at 10 µM (OVCAR-5) | further results
COc1ccc(-c2nc3cc(-c4nnc(SCC(=O)Nc5ccc(C(=O)/C=C/c6ccccc6)cc5)o4)ccc3[nH]2)cc1 [Compound 7k, 2-{5-[2-(4-Methoxyphenyl)-1 H-benzo[d]imidazol-5-yl]-1,3,4-oxadiazol-2-ylthio}-N-{4-[(E)-3-phenylacryloyl]phenyl}acetamide] | 5.82% | 0% | 9.04% | 0% | 23.5% | 28.7% | 20.3% | 14.1% | 2.63% | 15.6% | 85.1% | 12.9% | 26.6% | 50.3% | 22.5% | 16.9% | 0% | 6.61% | 19.1% | 0% | activity at 10 µM (LOX IMVI): 14.9%; inhibition at 10 µM (OVCAR-8): 28.2%; inhibition at 10 µM (PC-3): 22.4%; inhibition at 10 µM (SF-295): 17.8%; inhibition at 10 µM (SF-539): 27.5%; inhibition at 10 µM (SK-MEL-28): 11.4%; inhibition at 10 µM (SK-MEL-5): 49.2%; inhibition at 10 µM (SK-OV-3): 0%; inhibition at 10 µM (SNB-19): 0%; inhibition at 10 µM (SW-620): 0%; inhibition at 10 µM (TK-10): 0%; inhibition at 10 µM (UACC-257): 0.49%
COc1ccc(-c2nc3cc(-c4nnc(SCC(=O)Nc5ccc(C(=O)/C=C/c6ccc(Cl)cc6)cc5)o4)ccc3[nH]2)cc1 [Compound 7l, 2-{5-[2-(4-Methoxyphenyl)-1 H-benzo[d]imidazol-5-yl]-1,3,4-oxadiazol-2-ylthio}-N-{4-[(E)-3-(4-chlorophenyl)acryloyl]phenyl}acetamide] | 0% | 0% | 0% | 0% | 13.9% | 5.86% | 5.04% | 0% | 12.8% | 0% | 130% | 0% | 3.9% | 22% | 5.19% | 5.55% | 0% | 0% | 0% | 0.55% | activity at 10 µM (LOX IMVI): -29.9%; inhibition at 10 µM (OVCAR-8): 0%; inhibition at 10 µM (PC-3): 5.06%; inhibition at 10 µM (SF-295): 4.12%; inhibition at 10 µM (SF-539): 12.9%; inhibition at 10 µM (SK-MEL-28): 0%; inhibition at 10 µM (SK-MEL-5): 1.12%; inhibition at 10 µM (SK-OV-3): 0%; inhibition at 10 µM (SNB-19): 0%; inhibition at 10 µM (SW-620): 3.03%; inhibition at 10 µM (TK-10): 0%; inhibition at 10 µM (UACC-257): 0%
COc1ccc(/C=C/C(=O)c2ccc(NC(=O)CSc3nnc(-c4ccc5[nH]c(-c6ccc(OC)cc6)nc5c4)o3)cc2)cc1 [Compound 7m, 2-{5-[2-(4-Methoxyphenyl)-1 H-benzo[d]imidazol-5-yl]-1,3,4-oxadiazol-2-ylthio}-N-{4-[(E)-3-(4-methoxyphenyl)acryloyl]phenyl}acetamide] | 0% | 0% | 0% | 0% | 4.27% | 21.9% | 18.9% | 0% | 3.99% | 3.51% | 81.5% | 0% | 17.8% | 17.2% | 9.52% | 9.57% | 3.18% | 1.44% | 6.89% | 0% | inhibition at 10 µM (OVCAR-8): 23.4%; inhibition at 10 µM (PC-3): 14.7%; inhibition at 10 µM (SF-295): 2.1%; inhibition at 10 µM (SF-539): 18%; inhibition at 10 µM (SK-MEL-28): 2%; inhibition at 10 µM (SK-MEL-5): 22.2%; inhibition at 10 µM (SK-OV-3): 0%; inhibition at 10 µM (SNB-19): 3.7%; inhibition at 10 µM (SW-620): 2%; inhibition at 10 µM (TK-10): 0%; inhibition at 10 µM (UACC-257): 0%
COc1ccc(-c2nc3cc(-c4nnc(SCC(=O)Nc5ccc(C(=O)/C=C/c6ccc(OC)c(OC)c6)cc5)o4)ccc3[nH]2)cc1 [Compound 7n, 2-{5-[2-(4-Methoxyphenyl)-1 H-benzo[d]imidazol-5-yl]-1,3,4-oxadiazol-2-ylthio}-N-{4-[(E)-3-(3,4-dimethoxyphenyl)acryloyl]phenyl}acetamide] | 3.19% | 0% | 13.4% | 0% | 31.8% | 13.8% | 0% | 0% | 12.3% | 23.4% | 56.1% | 10.6% | 14.6% | 55.5% | 0% | 19.9% | 5.07% | 8.91% | 13.2% | 0% | activity at 10 µM (LOX IMVI): 44%; inhibition at 10 µM (OVCAR-8): 7.51%; inhibition at 10 µM (PC-3): 2.83%; inhibition at 10 µM (SF-295): 0%; inhibition at 10 µM (SF-539): 13.3%; inhibition at 10 µM (SK-MEL-28): 3.97%; inhibition at 10 µM (SK-MEL-5): 16.2%; inhibition at 10 µM (SK-OV-3): 0%; inhibition at 10 µM (SNB-19): 13.2%; inhibition at 10 µM (SW-620): 13.6%; inhibition at 10 µM (TK-10): 0%; inhibition at 10 µM (UACC-257): 1.66%
